Where two headings read alike, the source gives them in different places. Values belong to the compound of their own block, whether it stands above or below them.
How the values were obtained:
human TNF = assay: TNF inhibition: human whole blood assay; format: cell-based; conditions: for IC50: Homo sapiens; for inhibition at 5 µM: read-out: Human Whole Blood % Inhib @ conc.
Procedure: Human peripheral blood is obtained in heparinized tubes. A 190 μL aliquot of blood is placed in each well of a 96 well u-bottom plate. […] After one hour of incubation at 37° C., […] of lipopolysaccharide (Salmonella typhosa, Sigma) in phosphate buffered saline is added resulting in a final concentration of […]. After four to five hours of incubation at 37° C., the supernatants are harvested and assayed at 1:10 or 1:20 dilutions for human TNF using ELISA.

TNF-α = assay: Rat assay: LPS-challenged rats, serum TNF-α by ELISA; format: in vivo; conditions: Rattus norvegicus, po; for inhibition in vivo at 3 mg/kg: read-out: Rat LPS Assay % Inhibition; for inhibition in vivo at 10 mg/kg: Table 9, dose 10 mg/kg; for inhibition in vivo at 5 mg/kg: 5 mpk oral gavage, 4 h before LPS challenge, read-out: Rat LPS Model % Inhibition @ dose @ predose time
Procedure: The efficacy of the novel compounds in blocking the production of TNF also was evaluated using a model based on rats challenged with LPS. Male Harlen Lewis rats [Sprague Dawley Co.] were used in this model. Each rat weighed approximately 300 g and was fasted overnight prior to testing. Compounds administration was typically by oral gavage (although intraperitoneal, subcutaneous and intravenous administration were also used in a few instances) 1 to 24 hours prior to the LPS challenge. Rats were administered 30 μg/kg LPS [salmonella typhosa, Sigma Co.] intravenously via the tail vein. Blood was collected via heart puncture 1 hour after the LPS challenge. Serum samples were stored at −20° C. until quantitative analysis of TNF-α by Enzyme Linked-Immuno-Sorbent Assay (“ELISA”) [Biosource]. Additional details of the assay are set forth in Perretti, M., et al., Br. J. Pharmacol. (1993), 110, 868-874, which is incorporated by reference in this application.
In vivo assessment of the ability of the compounds to inhibit LPS-stimulated TNF release in the rat is shown in the column identified as:
wherein in the dose is milligram per kilogram (mpk) administered by oral gavage and the predose time indicates the number of hours before LPS challenge when the compound is administered.

[1] = target: T1, human GST-p38 kinase alpha (Homo sapiens, UniProt Q16539); assay: p38 kinase in vitro assay, second format, phosphorylation of EGFRP with 33P-ATP; format: biochemical; conditions: read-out: p38α Kinase Assay IC50
T1 construct: The coding region of the human p38a cDNA was obtained by PCR-amplification from RNA isolated from the human monocyte cell line THP.1; made in house; host or cells: E. coli DH10B
T1 sequence (Q16539 whole entry): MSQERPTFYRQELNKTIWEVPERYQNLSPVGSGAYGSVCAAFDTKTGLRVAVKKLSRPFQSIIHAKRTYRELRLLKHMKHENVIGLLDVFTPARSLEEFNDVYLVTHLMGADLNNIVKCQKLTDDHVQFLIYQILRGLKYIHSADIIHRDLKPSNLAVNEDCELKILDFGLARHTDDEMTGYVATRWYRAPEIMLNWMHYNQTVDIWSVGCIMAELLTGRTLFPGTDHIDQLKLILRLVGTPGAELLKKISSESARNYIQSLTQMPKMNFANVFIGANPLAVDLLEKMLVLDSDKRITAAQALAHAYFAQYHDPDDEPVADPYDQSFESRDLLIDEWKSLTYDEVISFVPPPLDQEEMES
Procedure: A second assay format was also employed that is based on p38 kinase alpha induced phosphorylation of EGFRP (epidermal growth factor receptor peptide, a 21 mer) in the presence of ^33P-ATP. Compounds were tested in 10 fold serial dilutions over the range of 100 μM to 0.001 μM in 10% DMSO. Each concentration of inhibitor was tested in triplicate. Compounds were evaluated in 50 μl reaction volumes in the presence of 25 mM Hepes pH 7.5, 10 mM magnesium acetate, 4% glycerol, 0.4% bovine serum albumin, 0.4 mM DTT, 50 μM unlabeled ATP, 25 μg EGFRP (200 μM), and 0.05 uCi gamma ^33P-ATP. Reactions were initiated by addition of 0.09 μg of activated, purified human GST-p38 kinase alpha. Activation was carried out using GST-MKK6 (5:1, p38: MKK6) for one hour at 30° C. in the presence of 50 μM ATP. Following incubation for 60 minutes at room temperature, the reaction was stopped by addition of 150 μl of AG 1×8 resin in 900 mM sodium formate buffer, pH 3.0 (1 volume resin to 2 volumes buffer). The mixture was mixed three times with pipetting and the resin was allowed to settle. A total of 50 μl of clarified solution head volume was transferred from the reaction wells to Microlite-2 plates. 150 μl of Microscint 40 was then added to each well of the Microlite plate, and the plate was sealed, mixed, and counted.

human p38 kinase alpha = target: T2, human p38 kinase alpha (Homo sapiens, UniProt Q16539); assay: p38 kinase in vitro assay, phosphorylation of biotinylated PHAS-I with gamma 32P-ATP; format: biochemical; conditions: read-out: P38 alpha kinase IC50
T2 construct: The coding region of the human p38a cDNA was obtained by PCR-amplification from RNA isolated from the human monocyte cell line THP.1; GST (N); made in house; host or cells: E. coli DH10B
T2 sequence (Q16539 whole entry): as above
Method in brief: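 MKK6-activated human p38α phosphorylates biotinylated PHAS-I with γ-32P-ATP in 25 mM HEPES pH 7.5, 10 mM Mg acetate, 50 μM unlabeled ATP, 1% DMSO, 30 °C for 1 h or overnight. Compounds at 100–0.001 μM (10-fold steps, triplicate); substrate captured on streptavidin filter plates and counted by scintillation.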

[2] = Table 8, human whole blood, LPS, read-out: TNF Inhibition-Human Whole Blood Assay
[3] = Table 9, human whole blood, LPS, read-out: TNF Inhibition-Human Whole Blood Assay
[4] = TNF production, LPS-stimulated human whole blood
[5] = TNF production, LPS-stimulated human whole blood, read-out: Human Whole Blood IC50

SMILES: O=C(O)CCC(=O)N1CCN(c2n[nH]c(-c3ccc(Cl)cc3)c2-c2ccncc2)CC1 [A-321 (dihydrate), 4-[5-(4-chlorophenyl)-4-(4-pyridinyl)-1H-pyrazol-3-yl]-γ-oxo-1-piperazinebutanoic acid, dihydrate]
- IC50 (human TNF; read-out: TNF Inhibition-Human Whole Blood Assay): > 25000 nM

SMILES: COC(=O)N1CCN(c2[nH]nc(-c3ccc(Cl)cc3)c2-c2ccncc2)CC1 [Example A-319, methyl 4-[5-(4-chlorophenyl)-4-(4-pyridinyl)-1H-pyrazol-3-yl]-1-piperazinecarboxylate, monohydrate]
- IC50 (human TNF; [2]): > 25000 nM
- inhibition in vivo at 3 mg/kg (TNF-α; Table 8, dose 3.0 mg/kg): 62%

SMILES: CCOC(=O)N1CCC(Nc2n[nH]c(-c3ccc(Cl)cc3)c2-c2ccncc2)CC1 [Example A-331, ethyl 4-[[5-(4-chlorophenyl)-4-(4-pyridinyl)-1H-pyrazol-3-yl]amino]-1-piperidinecarboxylate]
- IC50 ([1]; Table 8, 10% DMSO): 640 nM
- inhibition in vivo at 20 mg/kg (TNF-α; Table 8, dose 20.0 mg/kg): 13%

SMILES: CC1CN(c2[nH]nc(-c3ccc(Cl)cc3)c2-c2ccncc2)CC(C)N1 (centres unmarked) [Example A-342, 1-[5-(4-chlorophenyl)-4-(4-pyridinyl)-1H-pyrazol-3-yl]-3,5-dimethylpiperazine]
- IC50 (human TNF; [2]): 310 nM
- inhibition in vivo at 20 mg/kg (TNF-α; Table 8, dose 20.0 mg/kg): 98%

SMILES: CC1CN(c2[nH]nc(-c3ccc(Cl)cc3)c2-c2ccncc2)CCN1 (centres unmarked) [Example A-343, 1-[5-(4-chlorophenyl)-4-(4-pyridinyl)-1H-pyrazol-3-yl]-3-methylpiperazine]
- IC50 ([1]; Table 8, 10% DMSO): 16 nM
- inhibition in vivo at 20 mg/kg (TNF-α; Table 8, dose 20.0 mg/kg): 96%

SMILES: CCN1CCC(Nc2cc(-c3c[nH]nc3-c3ccc(F)cc3)ccn2)CC1 [Example A-352, N-(1-ethyl-4-piperidinyl)-4-[3-(4-fluorophenyl)-1H-pyrazol-4-yl]-2-pyridinamine]
- IC50 (human TNF; [3]): 9800 nM
- inhibition in vivo at 20 mg/kg (TNF-α; Table 9, dose 20 mg/kg): 36%

SMILES: OC[C@@H](Cc1ccccc1)Nc1cc(-c2c[nH]nc2-c2ccc(F)cc2)ccn1 [Example A-361, (βR)-β-[[4-[3-(4-fluorophenyl)-1H-pyrazol-4-yl]-2-pyridinyl]amino]benzene propanol]
- IC50 (human TNF; [3]): 1000 nM
- inhibition in vivo at 20 mg/kg (TNF-α; Table 9, dose 20 mg/kg): 9%

SMILES: Fc1ccc(-c2n[nH]cc2-c2ccnc(NCCN3CCCCC3)c2)cc1 [Example A-375, 4-[3-(4-fluorophenyl)-1H-pyrazol-4-yl]-N-[2-(1-piperidinyl)ethyl]-2-pyridinamine]
- IC50 ([1]; Table 9, 10% DMSO): 2300 nM
- inhibition in vivo at 20 mg/kg (TNF-α; Table 9, dose 20 mg/kg): 43%

SMILES: O=C1CCN(c2n[nH]c(-c3ccc(F)cc3)c2-c2ccncc2)CC1 [Example A-378, 1-[5-(4-fluorophenyl)-4-(4-pyridinyl)-1H-pyrazol-3-yl]-4-piperidinone]
- IC50 ([1]; Table 9, 10% DMSO): 6200 nM
- inhibition in vivo at 10 mg/kg (TNF-α): 73%

SMILES: OC1CCN(c2[nH]nc(-c3ccc(F)cc3)c2-c2ccncc2)CC1 [Example A-379, 1-[5-(4-fluorophenyl)-4-(4-pyridinyl)-1H-pyrazol-3-yl]-4-piperidinol]
- IC50 ([1]; Table 9, 10% DMSO): 190 nM
- inhibition in vivo at 10 mg/kg (TNF-α): 61%

SMILES: Fc1ccc(-c2n[nH]c(N3CCC4(CC3)OCCO4)c2-c2ccncc2)cc1 [Example A-380, 8-[5-(4-fluorophenyl)-4-(4-pyridinyl)-1H-pyrazol-3-yl]-1,4-dioxa-8-azaspiro[4.5]decane]
- IC50 ([1]; Table 9, 10% DMSO): 850 nM
- inhibition in vivo at 3 mg/kg (TNF-α; Table 9, dose 3 mg/kg): 33%
- inhibition in vivo at 10 mg/kg (TNF-α): 62%
- inhibition in vivo at 30 mg/kg (TNF-α; Table 9, dose 30 mg/kg): 85%

SMILES: O[C@H]1CC[C@H](Nc2cc(-c3c[nH]nc3-c3ccc(F)cc3)ccn2)CC1 [Example A-386, trans-4-[[4-[3-(4-fluorophenyl)-1-H-pyrazol-4-yl]-2-pyridinyl]amino]cyclohexanol]
- IC50 (human TNF; [3]): 160 nM
- inhibition in vivo at 20 mg/kg (TNF-α; Table 9, dose 20 mg/kg): 91%

SMILES: O=C1CCC(Nc2cc(-c3c[nH]nc3-c3ccc(F)cc3)ccn2)CC1 [Example A-387, 4-[[4-[3-(4-fluorophenyl)-1H-pyrazol-4-yl]-2-pyridinyl]amino]cyclohexanone]
- IC50 ([1]; Table 9, 10% DMSO): 5 nM
- inhibition in vivo at 20 mg/kg (TNF-α; Table 9, dose 20 mg/kg): 83%

- IC50 (human p38 kinase alpha): 8 nM
SMILES: C=CCN1CCC(c2[nH]nc(-c3ccc(Cl)cc3)c2-c2ccncc2)CC1 [Example C-80]
- inhibition at 5 µM (human TNF; [4]): 51%

- IC50 (human p38 kinase alpha): 37 nM
SMILES: C#CCN1CCC(c2[nH]nc(-c3ccc(Cl)cc3)c2-c2ccncc2)CC1 [Example C-81]
- inhibition at 5 µM (human TNF; [4]): 40%

- IC50 (human p38 kinase alpha): 150 nM
- IC50 (human TNF; [5]): 7310 nM
SMILES: Clc1ccc(-c2n[nH]c(C3CCN(Cc4nccs4)CC3)c2-c2ccncc2)cc1 [Example C-82]

- IC50 (human p38 kinase alpha): 570 nM
- IC50 (human TNF; [5]): > 25000 nM
SMILES: CC(C)N1CCC(c2[nH]nc(-c3ccc(C(F)(F)F)cc3)c2-c2ccncc2)CC1 [Example C-85]

- IC50 (human p38 kinase alpha): 27 nM
- IC50 (human TNF; [5]): 340 nM
SMILES: CN1CCC(c2[nH]nc(-c3cccc(C(F)(F)F)c3)c2-c2ccncc2)CC1 [Example C-87]

- IC50 (human p38 kinase alpha): 37 nM
- IC50 (human TNF; [5]): 480 nM
SMILES: Fc1ccc(-c2n[nH]c(C3CCCNC3)c2-c2ccncc2)cc1 (centres unmarked) [Example C-90, 5-(3-piperidyl)-4-(4-pyridyl)-3-(4-fluorophenyl)pyrazole]

SMILES: CC(=O)N[C@H]1CC[C@@H](c2[nH]nc(-c3ccc(Cl)cc3)c2-c2ccncc2)CC1 [Example C-95, 5- cis-[4-N-(ACETYL)AMINOCYCLOHEXYL]-4-(4-PYRIDYL)-3-(4-CHLOROPHENYL)PYRAZOLE]
- IC50 (human TNF; [5]): 3910 nM
- inhibition in vivo at 5 mg/kg (TNF-α): 32%

SMILES: COCC(=O)NC1CCC(c2[nH]nc(-c3ccc(Cl)cc3)c2-c2ccncc2)CC1 (stereo not drawn) [Example C-96, 5-cis-[4-N-(METHOXYACETYL)AMINOCYCLOHEXYL]-4-(4-PYRIDYL)-3-(4-CHLOROPHENYL)PYRAZOLE]
- IC50 (human TNF; [5]): 2100 nM
- inhibition in vivo at 5 mg/kg (TNF-α): 38%

SMILES: N[C@H]1CC[C@@H](c2[nH]nc(-c3ccc(C(F)(F)F)cc3)c2-c2ccncc2)CC1 [Example C-101, 5-cis-(4-AMINOCYCLOHEXYL)-4-(4-PYRIDYL)-3-[4-(TRIFLUOROMETHYL)PHENYL]PYRAZOLE]
- IC50 (human TNF; [5]): 3710 nM
- inhibition in vivo at 5 mg/kg (TNF-α): 52%

- IC50 (human p38 kinase alpha): 670 nM
- IC50 (human TNF; [5]): > 25000 nM
SMILES: Fc1ccc(-c2n[nH]c([C@@H]3CCCN3)c2-c2ccncc2)cc1 [Example C-123, (S)-5-(2-PYROLIDINYL)-74-(4-PYRIDYL)-3-(4-FLUOROPHENYL)PYRAZOLE]

- IC50 (human p38 kinase alpha): 7220 nM
- IC50 (human TNF; [5]): > 25000 nM
SMILES: Fc1ccc(-c2n[nH]c([C@H]3CCCN3)c2-c2ccncc2)cc1 [Example C-125, (R)-5-(2-PYROLIDINYL)-4-(4-PYRIDYL)-3-(4-FLUOROPHENYL)PYRAZOLE]

SMILES: Fc1ccc(-c2n[nH]c([C@@H]3CCCNC3)c2-c2ccncc2)cc1 [Example C-127]
- IC50 (human p38 kinase alpha): 38 nM
- IC50 (human TNF; [5]): 270 nM

- IC50 (human p38 kinase alpha): 86 nM
SMILES: OCCCCc1[nH]nc(-c2ccc(F)cc2)c1-c1ccncc1 [Example C-132, 5-[4-(1-HYDROXY)BUTYL]-4-(4-PYRIDYL)-3-(4-FLUOROPHENYL)PYRAZOLE]
- inhibition at 5 µM (human TNF; [4]): 44%
